From BindingDB's records for patent US20230348450 (Genzyme, 2023)
“And” between values parts separate entries of the source, which are not always exact repeats. Equal entries are not always repeated.

Target: T1, Bisphosphoglycerate mutase (Homo sapiens, UniProt P07738)
T1 sequence (P07738 whole entry): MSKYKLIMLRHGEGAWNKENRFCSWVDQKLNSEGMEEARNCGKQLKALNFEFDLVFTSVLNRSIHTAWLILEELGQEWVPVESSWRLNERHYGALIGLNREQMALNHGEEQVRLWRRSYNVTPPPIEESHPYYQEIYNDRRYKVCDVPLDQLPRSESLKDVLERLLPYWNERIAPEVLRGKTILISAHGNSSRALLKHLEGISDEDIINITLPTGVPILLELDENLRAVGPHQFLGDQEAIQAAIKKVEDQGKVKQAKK
Experiment: BPGM Synthase Assay
Description: To the assay plate was added Enzyme Solution (20 uL) to columns 2-22 and 24 of the assay plate. To columns 1 and 23 was added GAPDH Solution (20 uL). A separate compound plate was prepared at the desired concentrations and all wells were normalized with 5% DMSO. The compound plate was incubated for 30 minutes at RT. Next, the substrate solution (20 μL) was dispensed to all reaction wells and the plate was incubated for 60 minutes at RT. Koningic acid (1 μL) was added and the plate was incubated for 10 minutes at RT. […] Next, Resazurin Solution (10 μL) was added to all reaction wells and the plate was incubated for 30 minutes at RT.

| Structure (SMILES) | IC50 |
| --- | --- |
| COC(=O)NCc1nc(C)c(-c2cccc(-c3ccc(C(=O)O)c(O)c3)n2)s1 [US20230348450, Example 9] | 317 nM |
| Cc1nc(COc2ncccn2)sc1-c1cccc(-c2ccc(C(=O)O)c(O)c2)n1 [US20230348450, Example 6] | 70 nM |
| CC(=O)NCc1nc(C)c(-c2csc(-c3cc(O)c(C(=O)O)cc3F)n2)s1 [US20230348450, Example 10] | 95 nM |
| Cc1nc(COc2ccc(F)cn2)sc1-c1cccc(-c2ccc(C(=O)O)c(O)c2)c1 [US20230348450, Example 1] | 1500 nM and 1000 nM |
| COC(=O)NCc1nc(C)c(-c2nsc(-c3cc(O)c(C(=O)O)cc3F)n2)s1 [US20230348450, Example 8] | 95 nM |
| Cc1nc(COCC(=O)N(C)C)sc1-c1csc(-c2cc(O)c(C(=O)O)cc2F)n1 [US20230348450, Example 7] | 60 nM |
| Cc1nc(COc2ccccn2)sc1-c1cccc(-c2ccc(C(=O)O)c(O)c2)c1 [US20230348450, Example 4] | 590 nM and 710 nM |
| Cc1nc(COc2ncccn2)sc1-c1cccc(-c2cc(C(=O)O)cs2)n1 [US20230348450, Example 3] | 260 nM and 180 nM |
| COC(=O)NCc1nc(C)c(-c2csc(-c3cc(O)c(C(=O)O)cc3F)n2)s1 [US20230348450, Example 209] | 63 nM and 59 nM |
| Cc1nc(COc2ncccn2)sc1-c1cccc(-c2ccc(S(=O)(=O)CC(=O)O)cc2)n1 [US20230348450, Example 2] | 146 nM |
